Experimental findings from patent US11591334B2, “Substituted pyrrolizines for the treatment of hepatitis B” (SHANGHAI LONGWOOD BIOPHARMACEUTICALS CO., LTD., priority 2017, dated 2023) are described below.

Structures are written as SMILES. Read-outs that look alike come from different tables or passages of the source.

The test system of one data set is HBV. Nature of the data set: Determination of anti-HBV activity in HepG2.2.15 cell (Experiment 2, HBV DNA in supernatant by qPCR). It is filed as cell-based. The settings on record: Hepatitis B virus; HepG2.2.15 cells, HBV DNA in supernatant on the eighth day, qPCR; read-out: Experiment 2 Cell experiment EC50. As to the method: Experiment 2: Determination of Anti-HBV Activity in HepG2.2.15 Cell
Compound dilution. All the compounds for in vitro anti-HBV activity assay and cytotoxicity assay were 3-fold diluted into 8 concentrations. The final concentration of the tested compound was 30 μM, the final starting concentration of reference compound GLS4 was 1 μM, and the final concentration of DMSO was 0.5%.
HepG2.2.15 cell (4×10^4 cell/well) was inoculated into 96 well plate, and cultured overnight in 37° C., 5% CO2. On the second day, fresh culture medium containing different concentrations of the compound was added into the culture wells. On the fifth day, the old culture solution in the culture well was aspirated and fresh culture medium containing different concentrations of the compound was added.
On the eighth day, the supernatant in the culture well was collected for extraction of HBV DNA, and the content of DNA in the supernatant of HepG2.2.15 HBV was detected by qPCR. After the supernatant was collected, the medium and Cell-titer Glo reagent were added into the culture well, and the chemiluminescence value of each well was measured by microplate reader.
The activity calculation formula was as follows: Y=Bottom+(Top−Bottom)/(1+10^((LogIC50−X)*Hillslope));
For orientation: In qPCR the cycle at which signal appears reflects the starting amount.

Data set [1] can be described thus: Determination of cytotoxicity (Experiment 3, resazurin assay). The following applies: human; HepG2 cells, incubated for 4 days, resazurin assay; read-out: Experiment 3 Cytotoxicity CC50. The format is cell-based. As to the method: Compound dilution. All the compounds for in vitro anti-HBV activity assay and cytotoxicity assay were 3-fold diluted into 8 concentrations. The final concentration of the tested compound was 30 μM, the final starting concentration of reference compound GLS4 was 1 μM, and the final concentration of DMSO was 0.5%. Experiment 3: Determination of Cytotoxicity The cytotoxicity of the test compound was tested using HepG2 cells. The cells were incubated for 4 days in the presence of the test compound. Cell activity was assessed using the resazurin assay.
For orientation: Alamar Blue is a resazurin reagent that responds to reducing activity.

A further data set has as its target T1, C150 protein (Hepatitis B virus genotype D subtype adw, UniProt P03147, C107A/C48A/C61A/R150C).
T1 construct: purchased WuXi Apptec Co., Ltd
Nature of the data set: In vitro anti-HBV nucleocapsid assembly activity test (Experiment 1, protein experiment). It is filed as biochemical. The protocol:
Experiment 1: In Vitro Anti-HBV Nucleocapsid Assembly Activity Test
Main Reagents and Raw Materials:
C150 protein was expressed and purified by WuXi Apptec Co., Ltd.
BoDIPY® FL was purchased from Thermo Fisher Scientific.
Protein Fluorescent Label:
150 μL of 2% w/v skimmed milk was added into each well of 96-well plate, and incubated at room temperature for 2 hours. The skimmed milk was aspirated. The plate was washed with deionized water and dried, and stored at room temperature. C150 protein (3 mg per tube) was desalted with 5 ml Hitrap desalting column. The desalted C150 protein of each tube was added with 50 mM BoDIPY® FL Fluorescent Dye (20 μl), and incubated under 4° C. overnight in the dark after well mixed. Sephadex G-25 gel was used for filtration to remove fluorescent dyes that were not bounded onto C150. The C150 fluorescent labeling efficiency was calculated according to the following equation: [BoDIPY®FL]=A504/78,000 M^−1; [C150Bo]=(A280−[BoDIPY®FL]×1300 M^−1)/60,900 M^−1; Fluorescent Labeling Efficiency=[BoDIPY®FL]/[C150Bo];
The mother liquor of compound was diluted with DMSO to 6 mM, then diluted to 600 μM with 50 mM HEPES, and then further 3-fold diluted with 10 DMSO/50 mM HEPES to 8 concentrations.
C150Bo was diluted to 2 μM with 50 mM HEPES. 37.5 μL of C150Bo and 2.5 μL of compound at each concentration were added into a 96 well plate and well mixed, then incubated at room temperature for 15 minutes. 10 μl of 750 mM NaCl/50 mM HEPES were added into the each reaction well, and the final concentration of NaCl was 150 mM.
Into the control wells in the 0% protein group 10 μL of 50 mM HEPES was added, and the final concentration of NaCl was 0 mM.
Into the control wells in the 100% protein group 10 μL of 5 M/50 mM HEPES was added, and the final concentration of NaCl was 1 M.
The final concentration of DMSO was 0.5%, the maximum final concentration of the compound was 30 μM, and final concentration of C150Bo was 1.5 μM. The mixture was incubated at room temperature for 1 hour. Fluorescence signal was measured (excitation light was 485 nm; emission light was 535 nm).
Data Analysis % protein assembly=[1−(Sample fluorescence value−1 M NaCl fluorescence value)/(0 M NaCl fluorescence value−1 M NaCl fluorescence value)]×100.
IC50 value was calculated by prism software, and the equation was as follows: Y=Bottom+(Top−Bottom)/(1+10^((LogIC50−X)HillSlope));

Setting [2] is: fluorescently labeled C150 (C150Bo) 1.5 μM, 150 mM NaCl, 1 hour at room temperature, read-out: Experiment 1 Protein experiment IC50.

T1 sequence (P03147 1-150 C48A/C61A/C107A/R150C): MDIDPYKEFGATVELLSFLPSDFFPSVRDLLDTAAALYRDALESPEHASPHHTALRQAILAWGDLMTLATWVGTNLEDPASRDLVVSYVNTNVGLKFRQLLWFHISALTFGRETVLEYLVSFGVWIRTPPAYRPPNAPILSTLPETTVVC

Take `N#Cc1cc(NC(=O)c2c(Cl)c(S(=O)(=O)NC3C4CCC3CC(O)(c3cc(-c5ccccc5)on3)C4)c3n2CCC=C3)cc(F)n1` (stereo not drawn) [Compound 30s]: in the data set with HBV, the EC50 was 0.1 to 1 µM. The CC50 at 4 days in data set [1] was greater than 30 µM. In addition, the IC50 on C150 protein (setting [2]) lay within 1 to 100 µM.
On the same counts, the results for `CC(NS(=O)(=O)c1c2ncccc2c(C(=O)Nc2ccc(F)c(C#N)c2)n1C)C(F)(F)F` (stereo not drawn) [Compound 70b] are 0.0001 to 0.1 µM, greater than 30 µM and greater than 100 µM.
With `CC(NS(=O)(=O)c1c2ncccc2c(C(=O)Nc2ccc(F)c(F)c2)n1C)C(F)(F)F` (stereo not drawn) [Compound 70a], in the data set with HBV, the EC50 lay in the range of 0.0001 to 0.1 µM. In addition, in data set [1], the CC50 at 4 days is greater than 30 µM. The IC50 on C150 protein (setting [2]) was greater than 100 µM.
Consider `Cc1c(NC(=O)NC2(C)COC2)c2n(c1C(=O)Nc1cc(F)nc(C#N)c1)CCCCC2` [Compound 100r], for which the EC50 in the data set with HBV lay within 0.0001 to 0.1 µM. The CC50 at 4 days in data set [1] was greater than 30 µM. Further, the IC50 on C150 protein (setting [2]) was in the range of 1 to 100 µM.
For `CC(NS(=O)(=O)c1c2[nH]ccc2c(C(=O)Nc2cc(F)nc(C#N)c2)n1C)C(F)(F)F` (stereo not drawn) [Compound 80d], in that order: 0.0001 to 0.1 µM, greater than 30 µM and 1 to 100 µM.
For `Cc1c(S(=O)(=O)NC(C)C(F)(F)F)c2n(c1C(=O)Nc1ccc(F)c(C#N)c1)CCCC2` (stereo not drawn) [Compound 40f], in that order: 0.0001 to 0.1 µM, greater than 30 µM and 1 to 100 µM.
For `CC(NS(=O)(=O)c1c(Cl)c(C(=O)Nc2ccnc(C(F)F)c2)n2c1C=CC2)C(F)(F)F` (stereo not drawn) [Compound 10d], in that order: 0.1 to 1 µM, greater than 30 µM and 1 to 100 µM.
As for `C[C@@H](NS(=O)(=O)c1c(Cl)c(C(=O)Nc2ccc(F)c(C#N)c2)n2c1CCCCC2)C(F)(F)F` [Compound 60b], in the data set on HBV, the EC50 is 0.0001 to 0.1 µM. Moreover, in data set [1], the CC50 at 4 days was greater than 30 µM. The IC50 on C150 protein was 1 to 100 µM.

The term EC50 denotes the concentration needed to bring the measured effect to its halfway point. A word on the CC50: it is the concentration that lowers cell viability or growth by half. In general, IC50 refers to the point on the concentration scale where inhibition reaches its midpoint.
